In one test the target is human recombinant BACE1 (Homo sapiens (Human), UniProt P56817). Briefly: In vitro enzymatic BACE1 FRET assay. It counts as biochemical. To be noted: read-out: IC50 IP (μM) BACE1 enzyme. A digest of the protocol: (§1)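 Tris addition raises the pH to neutral to stop the reaction before fluorescence is measured at 590 nm emission with 488 nm excitation.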
The test system of test [1] is Aβ40 in conditioned medium of cells stably expressing Amyloid Precursor Protein (APP). Briefly: In vitro BACE-1 cell-based assay (Aβ40 sandwich ELISA). To be noted: read-out: IC50 IP (μM) BACE1 cell. An outline of the steps:
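Read-out: time-resolved fluorescence (Streptavidin-Europium) of Aβ40 captured by pAb40 and detected with biotinylated 6E10 from supernatants of APP-stable cells. Cells were exposed to compound for 24 h, 10-point dose response, top dose 100 μM or 10 μM, 0.1% DMSO. IC50 fitted to percent of control.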
For orientation: ELISA stands for enzyme-linked immunosorbent assay.

The next test deals with human recombinant BACE2 (Homo sapiens (Human), UniProt Q9Y5Z0). Nature of the test: In vitro enzymatic BACE2 FRET assay. It counts as biochemical. Particulars: read-out: IC50 IP (μM) BACE2 enzyme. A digest of the protocol:
as §1

Another test addresses Recombinant Cat D (Homo sapiens (Human), UniProt P07339). Nature of the test: In vitro enzymatic Cathepsin D (Cat D) FRET assay. Particulars: read-out: IC50 IP (μM) CatD. It is filed as biochemical. A digest of the protocol:
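Recombinant Cat D expressed in CHO cells, assayed in 0.05 M citrate pH 3.5 with 5 mM CHAPS and 10% DMSO final. Reaction started with 20 nM FRET peptide substrate, incubated one hour, then stopped by Tris buffer to neutral pH; fluorescence read at ex 500/em 580 nm.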

The structures appear in SMILES notation.

Sequence of human recombinant BACE2 (Q9Y5Z0 63-518): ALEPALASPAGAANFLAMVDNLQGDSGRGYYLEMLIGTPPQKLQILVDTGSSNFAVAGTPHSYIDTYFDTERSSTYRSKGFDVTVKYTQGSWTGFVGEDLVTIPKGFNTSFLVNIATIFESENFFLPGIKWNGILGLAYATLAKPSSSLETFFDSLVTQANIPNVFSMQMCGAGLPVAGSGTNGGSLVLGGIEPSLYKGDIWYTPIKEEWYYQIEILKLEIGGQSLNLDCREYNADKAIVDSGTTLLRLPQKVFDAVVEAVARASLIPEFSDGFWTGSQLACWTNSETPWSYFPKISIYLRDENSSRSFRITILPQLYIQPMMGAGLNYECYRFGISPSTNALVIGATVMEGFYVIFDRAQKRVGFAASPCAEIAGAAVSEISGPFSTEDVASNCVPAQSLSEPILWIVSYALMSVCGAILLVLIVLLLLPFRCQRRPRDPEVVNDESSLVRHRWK
Sequence of human recombinant BACE1 (P56817 46-501): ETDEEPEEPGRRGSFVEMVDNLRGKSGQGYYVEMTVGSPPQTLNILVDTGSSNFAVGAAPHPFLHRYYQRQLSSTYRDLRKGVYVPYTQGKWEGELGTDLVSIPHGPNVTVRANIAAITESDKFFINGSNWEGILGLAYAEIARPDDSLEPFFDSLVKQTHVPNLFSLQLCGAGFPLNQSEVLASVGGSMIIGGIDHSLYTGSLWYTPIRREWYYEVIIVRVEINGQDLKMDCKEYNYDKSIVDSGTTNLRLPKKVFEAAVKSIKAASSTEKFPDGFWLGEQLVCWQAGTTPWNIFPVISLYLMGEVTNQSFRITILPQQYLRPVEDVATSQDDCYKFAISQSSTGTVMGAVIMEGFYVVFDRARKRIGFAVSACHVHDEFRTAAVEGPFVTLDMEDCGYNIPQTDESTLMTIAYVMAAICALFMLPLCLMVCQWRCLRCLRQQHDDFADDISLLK
Sequence of Recombinant Cat D (P07339 65-412): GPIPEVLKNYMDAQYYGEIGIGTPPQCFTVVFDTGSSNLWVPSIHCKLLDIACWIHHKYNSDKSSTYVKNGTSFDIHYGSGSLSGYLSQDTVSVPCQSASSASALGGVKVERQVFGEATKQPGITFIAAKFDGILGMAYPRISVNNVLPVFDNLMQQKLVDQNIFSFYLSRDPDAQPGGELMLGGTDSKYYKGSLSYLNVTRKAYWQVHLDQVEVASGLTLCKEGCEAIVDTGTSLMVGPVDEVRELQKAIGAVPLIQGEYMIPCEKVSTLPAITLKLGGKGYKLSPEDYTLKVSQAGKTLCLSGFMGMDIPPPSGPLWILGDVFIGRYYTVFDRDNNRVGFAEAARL

In general, IC50 refers to the concentration at which inhibition is half-maximal. Regarding `CN(C)C(=O)[C@]12C[C@H]1[C@@](CF)(c1cc(NC(=O)c3ccc(Cl)cn3)ccc1F)N=C(N)S2` [Example 790, (1S,5S,6S)-3-amino-5-(5-(((5-chloro-2-pyridinyl)carbonyl)amino)-2-fluorophenyl)-5-(fluoromethyl)-N,N-dimethyl-2-thia-4-azabicyclo[4.1.0]hept-3-ene-1-carboxamide], the IC50 on human recombinant BACE1 is 0.000338 µM; in test [1] it was 0.0028 µM; at human recombinant BACE2, below 0.00203 µM; on Recombinant Cat D it was 792 µM.

Take `C#CCOc1cnc2c(Nc3ccc(F)c([C@@]4(C)N=C(N)S[C@@]5(C(=O)NC6CC6)C[C@H]54)c3)ncnc2c1` [Example 791, (1S,5S,6S)-3-amino-N-cyclopropyl-5-(2-fluoro-5-((7-(2-propyn-1-yloxy)pyrido[3,2-d]pyrimidin-4-yl)amino)phenyl)-5-methyl-2-thia-4-azabicyclo[4.1.0]hept-3-ene-1-carboxamide]: the IC50 at human recombinant BACE1 was 0.000658 µM; in test [1] it was 0.00183 µM; on human recombinant BACE2, 0.0712 µM; at Recombinant Cat D, 317 µM.

For `C[C@]1(c2cc(NC(=O)c3ccc(Cl)cn3)ccc2F)N=C(N)S[C@@]2(C(=O)NC3CC3)C[C@H]21` [Example 792, (1S,5S,6S)-3-amino-5-(5-(((5-chloro-2-pyridinyl)carbonyl)amino)-2-fluorophenyl)-N-cyclopropyl-5-methyl-2-thia-4-azabicyclo[4.1.0]hept-3-en-1-carboxamide], the IC50 is 0.00075 µM on human recombinant BACE1, 0.000971 µM in test [1], below 0.00203 µM on human recombinant BACE2 and 134 µM at Recombinant Cat D.

For the compound `C#CCOc1ccc(C(=O)Nc2ccc(F)c([C@@]3(CF)N=C(N)S[C@@]4(c5ccon5)C[C@@H]34)c2)nc1` [Example 793, N-(3-((1S,5S,6S)-3-amino-5-(fluoromethyl)-1-(3-isoxazolyl)-2-thia-4-azabicyclo[4.1.0]hept-3-en-5-yl)-4-fluorophenyl)-5-(2-propyn-1-yloxy)-2-pyridinecarboxamide], the IC50 at human recombinant BACE1 came out at 0.000293 µM; in test [1], 0.0153 µM; at human recombinant BACE2 it was 0.00477 µM; at Recombinant Cat D, 482 µM.

With `C#CCOc1cnc2c(Nc3ccc(F)c([C@@]4(C)N=C(N)S[C@@]5(C(=O)NC6CC6)C[C@H]54)c3)nccc2n1` [Example 794, (1S,5S,6S)-3-amino-N-cyclopropyl-5-(2-fluoro-5-((2-(2-propyn-1-yloxy)pyrido[3,4-b]pyrazin-5-yl)amino)phenyl)-5-methyl-2-thia-4-azabicyclo[4.1.0]hept-3-ene-1-carboxamide], the IC50 on human recombinant BACE1 amounted to 0.000846 µM; in test [1], 0.0012 µM; at human recombinant BACE2 it was 0.0397 µM; at Recombinant Cat D, 316 µM.

In the case of `C[C@]1(c2cc(Nc3nccc4nc(OCc5ncco5)cnc34)ccc2F)N=C(N)S[C@@]2(C(=O)NC3CC3)C[C@H]21` [Example 796, (1S,5S,6S)-3-amino-N-cyclopropyl-5-(2-fluoro-5-((2-(1,3-oxazol-2-ylmethoxy)pyrido[3,4-b]pyrazin-5-yl)amino)phenyl)-5-methyl-2-thia-4-azabicyclo[4.1.0]hept-3-ene-1-carboxamide], the IC50 at human recombinant BACE1 amounted to 0.000859 µM; in test [1], 0.00354 µM; on human recombinant BACE2, 0.0628 µM; on Recombinant Cat D, 543 µM.

Turning to `CC(C)(C)NC(=O)[C@]12C[C@H]1[C@@](C)(c1cc(NC(=O)c3ccc(Cl)cn3)ccc1F)N=C(N)S2` [Example 797, (1S,5S,6S)-3-amino-N-tert-butyl-5-(5-(((5-chloro-2-pyridinyl)carbonyl)amino)-2-fluorophenyl)-5-methyl-2-thia-4-azabicyclo[4.1.0]hept-3-ene-1-carboxamide], the IC50 is 0.00452 µM on human recombinant BACE1, 0.0211 µM in test [1], below 0.00203 µM on human recombinant BACE2 and 147 µM on Recombinant Cat D.

Regarding `C#CCOc1cnc(C(=O)Nc2ccc(F)c([C@@]3(C)N=C(N)S[C@@]4(C(=O)NC(C)(C)C)C[C@H]43)c2)cn1` [Example 798, (1S,5S,6S)-3-amino-N-tert-butyl-5-(2-fluoro-5-(((5-(2-propyn-1-yloxy)-2-pyrazinyl)carbonyl)amino)phenyl)-5-methyl-2-thia-4-azabicyclo[4.1.0]hept-3-ene-1-carboxamide], the half-maximal inhibitory concentration (IC50) at human recombinant BACE1 was found to be 0.000294 µM; in test [1], 0.000715 µM; on human recombinant BACE2, 0.0272 µM; on Recombinant Cat D it was 4.72 µM.

`C[C@]1(c2cc(NC(=O)c3cnc(OCc4ncco4)cn3)ccc2F)N=C(N)S[C@@]2(C(=O)NC3CC3)C[C@H]21` [Example 799, (1S,5S,6S)-3-amino-N-cyclopropyl-5-(2-fluoro-5-(((5-(1,3-oxazol-2-ylmethoxy)-2-pyrazinyl)carbonyl)amino)phenyl)-5-methyl-2-thia-4-azabicyclo[4.1.0]hept-3-ene-1-carboxamide]: the IC50 amounted to 0.000382 µM on human recombinant BACE1, 0.00075 µM in test [1], 0.015 µM at human recombinant BACE2 and 349 µM on Recombinant Cat D.

On to `C[C@]1(c2cc(NC(=O)c3cnc(OCC(F)(F)F)cn3)ccc2F)N=C(N)S[C@@]2(C(=O)NC3CC3)C[C@H]21` [Example 800, (1S,5S,6S)-3-amino-N-cyclopropyl-5-(2-fluoro-5-(((5-(2,2,2-trifluoroethoxy)-2-pyrazinyl)carbonyl)amino)phenyl)-5-methyl-2-thia-4-azabicyclo[4.1.0]hept-3-ene-1-carboxamide], for which the IC50 at human recombinant BACE1 came to 0.000711 µM; in test [1], 0.00659 µM; at human recombinant BACE2 it was 0.0841 µM; at Recombinant Cat D, 293 µM.

On to `COC[C@]12C[C@H]1[C@@](C)(c1cc(Nc3ncnc4cc(OCc5ncco5)cnc34)cc(F)c1F)N=C(N)S2` [Example 809, N-(3-((1S,5S,6S)-3-amino-1-(methoxymethyl)-5-methyl-2-thia-4-azabicyclo[4.1.0]hept-3-en-5-yl)-4,5-difluorophenyl)-7-(1,3-oxazol-2-ylmethoxy)pyrido[3,2-d]pyrimidin-4-amine], for which the IC50 on human recombinant BACE1 stood at 0.000974 µM; in test [1] it was 0.00181 µM; on human recombinant BACE2, 0.0358 µM; at Recombinant Cat D, 123 µM.

For the compound `C[C@]1(c2cc(NC(=O)c3cnc(OCc4ncco4)cn3)cc(F)c2F)N=C(N)S[C@@]2(CF)C[C@H]21` [Example 811, N-(3-((1S,5S,6S)-3-amino-1-(fluoromethyl)-5-methyl-2-thia-4-azabicyclo[4.1.0]hept-3-en-5-yl)-4,5-difluorophenyl)-5-(1,3-oxazol-2-ylmethoxy)-2-pyrazinecarboxamide], the IC50 at human recombinant BACE1 was 0.000676 µM; in test [1] it was 0.00126 µM; at human recombinant BACE2 it was 0.0207 µM; on Recombinant Cat D it was 297 µM.

`C#CCOc1cnc2c(Nc3ccc(F)c([C@@]4(C)N=C(N)S[C@@]5(C(F)F)C[C@@H]45)c3)nccc2n1` [Example 816, N-(3-((1S,5S,6S)-3-amino-1-(difluoromethyl)-5-methyl-2-thia-4-azabicyclo[4.1.0]hept-3-en-5-yl)-4-fluorophenyl)-2-(2-propyn-1-yloxy)pyrido[3,4-b]pyrazin-5-amine]: the IC50 on human recombinant BACE1 worked out at 0.000244 µM; in test [1] it was 0.00122 µM; at human recombinant BACE2 it was 0.0183 µM; on Recombinant Cat D, 73.6 µM.

The values are drawn from US20160046618A1, “Cyclopropyl Fused Thiazin-2-Amine Compounds as Beta-Secretase Inhibitors and Methods of Use” (AMGEN INC., priority 2014, published 2016).
